Molecular target: T1, hFXR (Homo sapiens, UniProt Q96RI1)
T1 construct: expressed in transfected cells; host or cells: CV-1 cells
T1 sequence (Q96RI1 1-486): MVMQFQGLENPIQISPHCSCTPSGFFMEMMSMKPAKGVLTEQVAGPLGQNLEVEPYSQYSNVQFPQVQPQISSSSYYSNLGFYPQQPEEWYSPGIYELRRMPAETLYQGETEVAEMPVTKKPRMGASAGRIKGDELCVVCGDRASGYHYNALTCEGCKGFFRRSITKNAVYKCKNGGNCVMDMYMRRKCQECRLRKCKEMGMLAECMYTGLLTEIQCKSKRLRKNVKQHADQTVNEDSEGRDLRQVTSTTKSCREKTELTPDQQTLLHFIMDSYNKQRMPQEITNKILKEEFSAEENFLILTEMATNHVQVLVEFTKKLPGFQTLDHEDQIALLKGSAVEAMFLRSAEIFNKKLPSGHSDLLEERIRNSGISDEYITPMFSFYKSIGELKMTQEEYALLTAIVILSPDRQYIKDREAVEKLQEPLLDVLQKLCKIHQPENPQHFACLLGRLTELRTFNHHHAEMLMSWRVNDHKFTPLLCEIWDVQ
T1 sequence (P19793 1-462 partner): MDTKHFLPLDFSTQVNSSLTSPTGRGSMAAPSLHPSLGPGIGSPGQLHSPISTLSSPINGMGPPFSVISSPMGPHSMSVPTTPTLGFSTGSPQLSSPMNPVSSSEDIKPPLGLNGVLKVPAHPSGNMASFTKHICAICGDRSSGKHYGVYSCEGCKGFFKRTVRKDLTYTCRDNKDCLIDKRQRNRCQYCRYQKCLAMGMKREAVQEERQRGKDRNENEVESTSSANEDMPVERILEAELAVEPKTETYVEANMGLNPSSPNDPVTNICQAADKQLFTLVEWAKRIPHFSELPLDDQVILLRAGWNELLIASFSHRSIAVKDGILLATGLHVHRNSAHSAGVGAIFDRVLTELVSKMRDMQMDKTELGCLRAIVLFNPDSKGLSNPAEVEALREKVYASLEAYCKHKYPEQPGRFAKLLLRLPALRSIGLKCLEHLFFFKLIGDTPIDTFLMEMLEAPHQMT
Experiment: In Vitro FXR Assay (TK)
Assay type: cell-based
Settings: CV-1 cells transfected with hFXR, hRXR, TK-ECRE-luc and pCMX-YFP; compounds incubated 18 hrs; luminescence
In short: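 CV-1 cells in DMEM with 10% charcoal-stripped FBS were co-transfected with hFXR, hRXR, TK-ECRE-luc reporter and pCMX-YFP plasmids. After 18 h, compounds serially diluted in DMSO were added for a further 18 h, then cells were lysed and luminescence read.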

| Structure (SMILES) | EC50 |
| --- | --- |
| COc1ccc(-c2ccc(CN(C(=O)CC(C)(C)C)c3nccc4c(C#N)cccc34)cc2)cc1C [Compound 13.02, N-(5-Cyanoisoquinolin-1-yl)-N-((4′-methoxy-3′-methyl-[1,1′-biphenyl]-4-yl)methyl)-3,3-dimethylbutanamide] | > 10 µM |
| COc1ccc(-c2ccc(CN(C(=O)CC(C)(C)C)c3nccc4cc(-c5ncco5)ccc34)cc2)cc1C [Compound 14, N-((4′-Methoxy-3′-methyl-[1,1′-biphenyl]-4-yl)methyl)-3,3-dimethyl-N-(6-(oxazol-2-yl)isoquinolin-1-yl)butanamide] | ≤ 1 µM |
| COc1ccc(-c2ccc(CN(C(=O)CC(C)(C)C)c3nccc4cc(-c5nccs5)ccc34)cc2)cc1C [Compound 14.01, N-((4′-Methoxy-3′-methyl-[1,1′-biphenyl]-4-yl)methyl)-3,3-dimethyl-N-(6-(thiazol-2-yl)isoquinolin-1-yl)butanamide] | ≤ 1 µM |
| COc1ncc(-c2ccc3c(N(Cc4ccc(-c5ccc(OC)c(C)c5)cc4)C(=O)CC(C)(C)C)nccc3c2)s1 [Compound 15, N-((4′-Methoxy-3′-methyl-[1,1′-biphenyl]-4-yl)methyl)-N-(6-(2-methoxythiazol-5-yl)isoquinolin-1-yl)-3,3-dimethylbutanamide] | 1 to 10 µM |
| COc1cccc(-c2ccc3c(N(Cc4ccc(-c5ccc(OC)c(C)c5)cc4)C(=O)CC(C)(C)C)nccc3c2)n1 [Compound 15.01, N-((4′-Methoxy-3′-methyl-[1,1′-biphenyl]-4-yl)methyl)-N-(6-(6-methoxypyridin-2-yl)isoquinolin-1-yl)-3,3-dimethylbutanamide] | 1 to 10 µM |
| COc1ccc(-c2ccc(CN(C(=O)CC(C)(C)C)c3nccc4cc(-c5ccccn5)ccc34)cc2)cc1C [Compound 16, N-((4′-Methoxy-3′-methyl-[1,1′-biphenyl]-4-yl)methyl)-3,3-dimethyl-N-(6-(pyridin-2-yl)isoquinolin-1-yl)butanamide] | ≤ 1 µM |
| COc1ccc(-c2ccc(CN(C(=O)CC(C)(C)C)c3nccc4cc(C(C)(C)O)ccc34)cc2)cc1C [Compound 17, N-(6-(2-Hydroxypropan-2-yl)isoquinolin-1-yl)-N-((4′-methoxy-3′-methyl-[1,1′-biphenyl]-4-yl)methyl)-3,3-dimethylbutanamide] | ≤ 1 µM |
| COc1ccc(-c2ccc(CN(C(C)=O)c3nccc4cc(C(C)(C)O)ccc34)cc2)cc1C [Compound 18, N-(6-(2-Hydroxypropan-2-yl)isoquinolin-1-yl)-N-((4′-methoxy-3′-methyl-[1,1′-biphenyl]-4-yl)methyl)acetamide] | > 10 µM |
| COc1ccc(-c2ccc(CN(C(=O)CC(C)(C)C)c3nccc4cc(C(=O)N(C)C)ccc34)cc2)cc1C [Compound 19, 1-(N-((4′-Methoxy-3′-methyl-[1,1′-biphenyl]-4-yl)methyl)-3,3-dimethylbutanamido)-N,N-dimethylisoquinoline-6-carboxamide] | ≤ 1 µM |
| CNC(=O)c1ccc2c(N(Cc3ccc(-c4ccc(OC)c(C)c4)cc3)C(=O)CC(C)(C)C)nccc2c1 [Compound 19.01, 1-(N-((4′-Methoxy-3′-methyl-[1,1′-biphenyl]-4-yl)methyl)-3,3-dimethylbutanamido)-N-methylisoquinoline-6-carboxamide] | 1 to 10 µM |
| COc1ccc(-c2ccc(CN(C(=O)CC(C)(C)C)c3nccc4cc(COCC(=O)N(C)C)ccc34)cc2)cc1C [Compound 19.02, N-(6-((2-(Dimethylamino)-2-oxoethoxy)methyl)isoquinolin-1-yl)-N-((4′-methoxy-3′-methyl-[1,1′-biphenyl]-4-yl)methyl)-3,3-dimethylbutanamide] | 1 to 10 µM |
| COc1ccc(-c2ccc(CN(C(=O)CC(C)(C)C)c3nccc4ccccc34)cc2)cc1C [Compound 20, N-(Isoquinolin-1-yl)-N-((4′-methoxy-3′-methyl-[1,1′-biphenyl]-4-yl)methyl)-3,3-dimethylbutanamide] | ≤ 1 µM |
| COC(=O)c1cc(-c2ccc(OC)c(C)c2)ccc1CN(C(=O)CC(C)(C)C)c1nccc2cc(OC)ccc12 [Compound 20.01, Methyl 4′-methoxy-4-((N-(6-methoxyisoquinolin-1-yl)-3,3-dimethylbutanamido)methyl)-3′-methyl-[1,1′-biphenyl]-3-carboxylate] | > 10 µM |
| COC(=O)c1cc(CN(C(=O)CC(C)(C)C)c2nccc3cc(OC)ccc23)ccc1-c1ccc(OC)c(C)c1 [Compound 20.02, Methyl 4′-methoxy-4-((N-(6-methoxyisoquinolin-1-yl)-3,3-dimethylbutanamido)methyl)-3′-methyl-[1,1′-biphenyl]-2-carboxylate] | ≤ 1 µM |
| COc1ccc2c(N(Cc3ccc(-c4ccc(OC)c(C)c4)cc3CO)C(=O)CC(C)(C)C)nccc2c1 [Compound 21, N-((3-(Hydroxymethyl)-4′-methoxy-3′-methyl-[1,1′-biphenyl]-4-yl)methyl)-N-(6-methoxyisoquinolin-1-yl)-3,3-dimethylbutanamide] | 1 to 10 µM |
| COc1ccc2c(N(Cc3ccc(-c4ccc(OC)c(C)c4)c(CO)c3)C(=O)CC(C)(C)C)nccc2c1 [Compound 21.01, N-((2-(Hydroxymethyl)-4′-methoxy-3′-methyl-[1,1′-biphenyl]-4-yl)methyl)-N-(6-methoxyisoquinolin-1-yl)-3,3-dimethylbutanamide] | 1 to 10 µM |
| COc1ccc(-c2ccc(CN(C(=O)CC(C)(C)C)c3nccc4cc(/C=C\CO)ccc34)cc2)cc1C [Compound 22, (Z)-N-(6-(3-Hydroxyprop-1-en-1-yl)isoquinolin-1-yl)-N-((4′-methoxy-3′-methyl-[1,1′-biphenyl]-4-yl)methyl)-3,3-dimethylbutanamide] | ≤ 1 µM |
| COc1ccc(-c2ccc(CN(C(=O)CC(C)(C)C)c3nccc4cc(/C=C/CO)ccc34)cc2)cc1C [Compound 23, (E)-N-(6-(3-Hydroxyprop-1-en-1-yl)isoquinolin-1-yl)-N-((4′-methoxy-3′-methyl-[1,1′-biphenyl]-4-yl)methyl)-3,3-dimethylbutanamide] | ≤ 1 µM |
| COc1ccc(-c2ccc(CN(C(=O)CC(C)(C)C)c3nccc4cc(CCCO)ccc34)cc2)cc1C [Compound 24, N-(6-(3-Hydroxypropyl)isoquinolin-1-yl)-N-((4′-methoxy-3′-methyl-[1,1′-biphenyl]-4-yl)methyl)-3,3-dimethylbutanamide] | ≤ 1 µM |
| COc1ccc(-c2ccc(CN(C(=O)CC(C)(C)C)c3nccc4cc(CCO)ccc34)cc2)cc1C [Compound 25, N-(6-(2-Hydroxyethyl)isoquinolin-1-yl)-N-((4′-methoxy-3′-methyl-[1,1′-biphenyl]-4-yl)methyl)-3,3-dimethylbutanamide] | ≤ 1 µM |
| COc1ccc(-c2ccc(CN(C(=O)CC(C)(C)C)c3nccc4cc(C(C)O)ccc34)cc2)cc1C (centres unmarked) [Compound 26, N-(6-(1-Hydroxyethyl)isoquinolin-1-yl)-N-((4′-methoxy-3′-methyl-[1,1′-biphenyl]-4-yl)methyl)-3,3-dimethylbutanamide] | ≤ 1 µM |
| COc1ccc(-c2ccc(CN(C(=O)CC(C)(C)C)c3nccc4cc(CC#N)ccc34)cc2)cc1C [Compound 27, N-(6-(Cyanomethyl)isoquinolin-1-yl)-N-((4′-methoxy-3′-methyl-[1,1′-biphenyl]-4-yl)methyl)-3,3-dimethylbutanamide] | ≤ 1 µM |
| COc1ccc(-c2ccc(CN(C(=O)CC(C)(C)C)c3nccc4cc(OC5CCNCC5)ccc34)cc2)cc1C [Compound 28, N-((4′-Methoxy-3′-methyl-[1,1′-biphenyl]-4-yl)methyl)-3,3-dimethyl-N-(6-(piperidin-4-yloxy)isoquinolin-1-yl)butanamide] | > 10 µM |
| COc1ccc(-c2ccc(CN(C(=O)CC(C)(C)C)c3nccc4cc(OC5CNC5)ccc34)cc2)cc1C [Compound 28.01, N-(6-(Azetidin-3-yloxy)isoquinolin-1-yl)-N-((4′-methoxy-3′-methyl-[1,1′-biphenyl]-4-yl)methyl)-3,3-dimethylbutanamide] | 1 to 10 µM |
| COc1ccc(-c2ccc(CN(C(=O)CC(C)(C)C)c3nccc4cc(OCC(=O)O)ccc34)cc2)cc1C [Compound 29, 2-((1-(N-((4′-Methoxy-3′-methyl-[1,1′-biphenyl]-4-yl)methyl)-3,3-dimethylbutanamido)isoquinolin-6-yl)oxy)acetic acid] | > 10 µM |
| COc1ccc(-c2ccc(CN(C(=O)CC(C)(C)C)c3nccc4cc(COCC(=O)O)ccc34)cc2)cc1C [Compound 29.01, 2-((1-(N-((4′-Methoxy-3′-methyl-[1,1′-biphenyl]-4-yl)methyl)-3,3-dimethylbutanamido)isoquinolin-6-yl)methoxy)acetic acid] | 1 to 10 µM |

From patent publication US20200131132A1, “FARNESOID X RECEPTOR AGONISTS AND USES THEREOF” (Metacrine, Inc., priority 2017, published 2020)
